From PMC10620772, “Design, synthesis, and biological evaluation of new pyrimidine-5-carbonitrile derivatives as novel anti-cancer, dual EGFR^WT/COX-2 inhibitors with docking studies” (RSC Advances, 2023)
“And” between values parts separate entries of the source, which are not always exact repeats. Equal entries are not always repeated. “Also recorded” adds a separate entry of the source. Where two headings read alike, the source gives them in different places.

Tests used:
Format in all cases: cell-based, human
SK-MEL-2 = assay: NCI60 antitumor screening; settings: Homo sapiens; 10 μM single dose; SK-MEL-2 (melanoma); read-out: growth inhibition percent (GI%)
NCI-H23 = assay: NCI60 antitumor screening
SNB-19 = assay: NCI60 antitumor screening
DU-145 = assay: NCI60 antitumor screening
SK-OV-3 = assay: NCI60 antitumor screening
NCI-H226 = assay: NCI60 antitumor screening
T-47D = assay: NCI60 antitumor screening
RXF 393 = assay: NCI60 antitumor screening
NCI60 cell lines panel = assay: NCI60 antitumor screening, full panel
Procedure, shortened: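 Single-concentration screen at 10 μM across the NCI60 panel (leukaemia, NSCLC, colon, CNS, melanoma, ovarian, renal, prostate, breast). Results are expressed as percent growth inhibition (GI%) of treated lines.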

ACHN = assay: NCI60 antitumor screening
UO-31 = assay: NCI60 antitumor screening; settings: Homo sapiens; 10 μM single dose; UO-31 (renal cancer); read-out: growth inhibition percent (GI%)
SW-620 = assay: NCI60 antitumor screening
EKVX = assay: NCI60 antitumor screening
SN12C = assay: NCI60 antitumor screening
HOP-62 = assay: NCI60 antitumor screening
MALME-3M = assay: NCI60 antitumor screening
HCT-15 = assay: NCI60 antitumor screening
UACC-257 = assay: NCI60 antitumor screening; settings: Homo sapiens, UACC-257; five-dose

`N#Cc1c(-c2ccc(F)cc2)nc(SCc2ccccc2)nc1N1CCNCC1` [4e, 2-(Benzylthio)-4-(4-fluorophenyl)-6-(piperazin-1-yl) pyrimidine-5-carbonitrile] was tested. Which inhibition at 10 µM (SK-MEL-2) did it give?
The inhibition at 10 µM was greater than 100%.

What about the GI50 (NCI-H23; Homo sapiens, NCI-H23, five-dose) of the same molecule?
Its GI50 is 15.1 µM.

What about the CC50 (NCI-H23; Homo sapiens, NCI-H23, five-dose, read-out: LC50 (the source's name)) of the same molecule?
Its CC50 is 56.5 µM.

What about the inhibition at 10 µM (NCI-H23; Homo sapiens, 10 μM single dose, NCI-H23 (non-small cell lung cancer), read-out: growth inhibition percent (GI%)) of the same molecule?
Its inhibition at 10 µM is greater than 100%.

What about the TGI (NCI-H23; five-dose) of the same molecule?
Its TGI is 29.30 µM.

What about the GI50 (SNB-19; Homo sapiens, SNB-19, five-dose) of the same molecule?
Its GI50 is 14.2 µM.

And the CC50 (SNB-19; Homo sapiens, SNB-19, five-dose, read-out: LC50 (the source's name))?
The CC50 was 60.6 µM.

What about the inhibition at 10 µM (SNB-19; Homo sapiens, 10 μM single dose, SNB-19 (CNS cancer), read-out: growth inhibition percent (GI%)) of the same molecule?
Its inhibition at 10 µM is greater than 100%.

What about the TGI (SNB-19; five-dose) of the same molecule?
The TGI was 29.30 µM.

What about the GI50 (DU-145; Homo sapiens, DU-145, five-dose) of the same molecule?
Its GI50 is 15 µM.

What about the CC50 (DU-145; Homo sapiens, DU-145, five-dose, read-out: LC50 (the source's name)) of the same molecule?
The CC50 was 56 µM.

And the inhibition at 10 µM (DU-145; Homo sapiens, DU-145, read-out: growth inhibition percent (GI%))?
The inhibition at 10 µM was greater than 100%.

What about the TGI (DU-145; five-dose) of the same molecule?
The TGI was 29.00 µM.

And the GI50 (SK-OV-3; Homo sapiens, SK-OV-3, five-dose)?
Its GI50 is 16 µM.

And the CC50 (SK-OV-3; Homo sapiens, SK-OV-3, five-dose, read-out: LC50 (the source's name))?
Its CC50 is 54.6 µM.

And the inhibition at 10 µM (SK-OV-3; Homo sapiens, 10 μM single dose, SK-OV-3 (ovarian cancer), read-out: growth inhibition percent (GI%))?
The inhibition at 10 µM was greater than 100%.

What about the TGI (SK-OV-3; five-dose) of the same molecule?
The TGI was 29.50 µM.

And the GI50 (NCI-H226; Homo sapiens, NCI-H226, five-dose)?
The GI50 was 13.8 µM.

And the CC50 (NCI-H226; Homo sapiens, NCI-H226, five-dose, read-out: LC50 (the source's name))?
Its CC50 is 81.3 µM.

What about the inhibition at 10 µM (NCI-H226; Homo sapiens, 10 μM single dose, NCI-H226 (non-small cell lung cancer), read-out: growth inhibition percent (GI%)) of the same molecule?
The inhibition at 10 µM was greater than 100%.

What about the TGI (NCI-H226; five-dose) of the same molecule?
The TGI was 33.40 µM.

What about the inhibition at 10 µM (T-47D; Homo sapiens, T47D, 10 μM single dose, T-47D (breast cancer), read-out: growth inhibition percent (GI%)) of the same molecule?
Its inhibition at 10 µM is greater than 100%.

What about the GI50 (T-47D; Homo sapiens, T47D, five-dose) of the same molecule?
The GI50 was 10.1 µM.

And the CC50 (T-47D; Homo sapiens, T47D, five-dose, read-out: LC50 (the source's name))?
The CC50 was 61 µM.

And the TGI (T-47D; five-dose)?
Its TGI is 24.80 µM.

And the GI50 (RXF 393; Homo sapiens, RXF 393, five-dose)?
Its GI50 is 3.14 µM.

What about the CC50 (RXF 393; Homo sapiens, RXF 393, five-dose, read-out: LC50 (the source's name)) of the same molecule?
The CC50 was 44.2 µM.

What about the inhibition at 10 µM (RXF 393; Homo sapiens, 10 μM single dose, RXF 393 (renal cancer), read-out: growth inhibition percent (GI%)) of the same molecule?
The inhibition at 10 µM was greater than 100%.

What about the TGI (RXF 393; five-dose) of the same molecule?
The TGI was 14.80 µM.

And the “One-dose activity over the NCI60 panel” value (NCI60 cell lines panel; 10 μM)?
The value was “lethal effect to all cancer subpanels; also recorded: Lethal to all NCI60 cell lines”.

What about the inhibition at 10 µM (NCI60 cell lines panel; Homo sapiens, 10 μM single dose, mean over NCI60 cell lines, read-out: Mean growth inhibition percent (GI%)) of the same molecule?
Its inhibition at 10 µM is greater than 100%.

What about the GI50 (NCI60 cell lines panel; Homo sapiens, average of all cell lines, read-out: Full panel MG-MID (GI50)) of the same molecule?
Its GI50 is 10.7 µM.

What about the GI50 (NCI60 cell lines panel; Homo sapiens, five-dose, read-out: GI50 range, leukemia and colon cancer cell lines) of the same molecule?
The GI50 was 1.77 to 17.1 µM.

And the CC50 (NCI60 cell lines panel; Homo sapiens, five-dose, read-out: LC50 range over examined cell lines)?
The CC50 was 5 to 69 µM.

What about the “Full panel MG-MID (TGI)” value (NCI60 cell lines panel; average of all cell lines) of the same molecule?
The value was 23.60 μM and 23.60 ^e μM.

And the GI50 (ACHN; Homo sapiens, ACHN, five-dose)?
Its GI50 is 14 µM.

And the LC50 (ACHN; Homo sapiens, ACHN, five-dose)?
The LC50 was 54 µM.

And the inhibition at 10 µM (ACHN; Homo sapiens, 10 μM single dose, ACHN (renal cancer), read-out: growth inhibition percent (GI%))?
Its inhibition at 10 µM is greater than 100%.

What about the TGI (ACHN; five-dose) of the same molecule?
Its TGI is 27.50 µM.

What about the inhibition at 10 µM (UO-31) of the same molecule?
Its inhibition at 10 µM is greater than 100%.

And the GI50 (SW-620; Homo sapiens, SW-620, five-dose)?
Its GI50 is 3.38 µM.

And the CC50 (SW-620; Homo sapiens, SW-620, five-dose, read-out: LC50 (the source's name))?
The CC50 was 40.9 µM.

What about the inhibition at 10 µM (SW-620; Homo sapiens, 10 μM single dose, SW-620 (colon cancer), read-out: growth inhibition percent (GI%)) of the same molecule?
The inhibition at 10 µM was greater than 100%.

And the TGI (SW-620; five-dose)?
Its TGI is 13.10 µM.

What about the GI50 (EKVX; Homo sapiens, EKVX, five-dose) of the same molecule?
Its GI50 is 12 µM.

And the LC50 (EKVX; Homo sapiens, EKVX, five-dose)?
The LC50 was 51 µM.

And the inhibition at 10 µM (EKVX; Homo sapiens, 10 μM single dose, EKVX (non-small cell lung cancer), read-out: growth inhibition percent (GI%))?
The inhibition at 10 µM was greater than 100%.

And the TGI (EKVX; five-dose)?
The TGI was 24.80 µM.

What about the GI50 (SN12C; Homo sapiens, SN12C, five-dose) of the same molecule?
Its GI50 is 13.8 µM.

What about the CC50 (SN12C; Homo sapiens, SN12C, five-dose, read-out: LC50 (the source's name)) of the same molecule?
Its CC50 is 53.8 µM.

What about the inhibition at 10 µM (SN12C; Homo sapiens, 10 μM single dose, SN12C (renal cancer), read-out: growth inhibition percent (GI%)) of the same molecule?
Its inhibition at 10 µM is greater than 100%.

And the TGI (SN12C; five-dose)?
Its TGI is 27.20 µM.

And the GI50 (HOP-62; Homo sapiens, HOP-62, five-dose)?
The GI50 was 13.2 µM.

What about the CC50 (HOP-62; Homo sapiens, HOP-62, five-dose, read-out: LC50 (the source's name)) of the same molecule?
Its CC50 is 59.9 µM.

What about the inhibition at 10 µM (HOP-62; Homo sapiens, 10 μM single dose, HOP-62 (non-small cell lung cancer), read-out: growth inhibition percent (GI%)) of the same molecule?
The inhibition at 10 µM was greater than 100%.

And the TGI (HOP-62; five-dose)?
The TGI was 28.10 µM.

And the GI50 (MALME-3M; Homo sapiens, Malme-3M, five-dose)?
Its GI50 is 14.1 µM.

And the CC50 (MALME-3M; Homo sapiens, Malme-3M, five-dose, read-out: LC50 (the source's name))?
Its CC50 is 56.3 µM.

What about the inhibition at 10 µM (MALME-3M; Homo sapiens, 10 μM single dose, MALME-3M (melanoma), read-out: growth inhibition percent (GI%)) of the same molecule?
The inhibition at 10 µM was greater than 100%.

And the TGI (MALME-3M; five-dose)?
Its TGI is 28.20 µM.

What about the GI50 (HCT-15; Homo sapiens, HCT-15, five-dose) of the same molecule?
The GI50 was 5.05 µM.

What about the CC50 (HCT-15; Homo sapiens, HCT-15, five-dose, read-out: LC50 (the source's name)) of the same molecule?
The CC50 was 43.8 µM.

And the inhibition at 10 µM (HCT-15; Homo sapiens, 10 μM single dose, HCT-15 (colon cancer), read-out: growth inhibition percent (GI%))?
Its inhibition at 10 µM is greater than 100%.

And the TGI (HCT-15; five-dose)?
The TGI was 17.50 µM.

And the GI50 (UACC-257)?
Its GI50 is 13.1 µM.
